Experimental data taken from patent publication US20160060260A1, “BROMODOMAIN INHIBITORS FOR TREATING DISEASE” (Board of Regents, The University of Texas System, priority 2014, published 2016).

Each molecule was assayed against T1, Recombinant human His-tagged Trim24-PHD-bromodomain (Homo sapiens, UniProt O15164) (assay: Trim24 AlphaScreen Assay). Conditions: 5 nM Trim24 protein, 15 nM biotinylated H3K23ac (1-33aa) peptide.
T1 construct: Recombinant human His-tagged Trim24-PHD-bromodomain (produced in-house); made in house
T1 sequence (O15164 824-1006 limits assumed): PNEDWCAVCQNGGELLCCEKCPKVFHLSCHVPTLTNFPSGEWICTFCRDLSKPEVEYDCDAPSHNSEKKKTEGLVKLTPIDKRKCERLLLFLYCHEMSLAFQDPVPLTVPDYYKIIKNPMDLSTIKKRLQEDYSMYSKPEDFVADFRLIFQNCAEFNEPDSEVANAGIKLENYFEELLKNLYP
Assay type: binding
Procedure, shortened: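 AlphaScreen read-out after 2 h with streptavidin donor and Ni-chelate acceptor beads at 10 ug/mL each, following 1 h room-temperature incubation of compound, His-tagged PHD-bromodomain protein and biotin-H3K23ac (1-33aa) peptide in Hepes pH 7.5 buffer with NaCl and Triton X-100. Signals normalised between no-compound and no-protein wells; IC50 from four-parameter logistic curves.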

SMILES	IC50 [nM]
COc1cc(OCC(C)C)cc(Oc2cc3c(cc2NS(=O)(=O)c2cn(C)c(C)n2)n(C)c(=O)n3C)c1 [Example 66, N-(6-(3-isobutoxy-5-methoxyphenoxy)-1,3-dimethyl-2-oxo-2,3-dihydro-1H-benzo[d]imidazol-5-yl)-1,2-dimethyl-1H-imidazole-4-sulfonamide]	10 to 100
Cc1c(S(=O)(=O)Nc2cc3c(cc2Oc2cc(OCCCCN(C)C)cc(OCC(F)(F)F)c2)n(C)c(=O)n3C)cnn1C [Example 212, N-(6-(3-(4-(dimethylamino)butoxy)-5-(2,2,2-trifluoroethoxy)phenoxy)-1,3-dimethyl-2-oxo-2,3-dihydro-1H-benzo[d]imidazol-5-yl)-1,5-dimethyl-1H-pyrazole-4-sulfonamide]	1 to 10
Cn1cnc(S(=O)(=O)Nc2cc3c(cc2Oc2cccc(OCc4ccncc4)c2)n(C)c(=O)n3C)c1 [Example 30, N-(1,3-dimethyl-2-oxo-6-(3-(pyridin-4-ylmethoxy)phenoxy)-2,3-dihydro-1H-benzo[d]imidazol-5-yl)-1-methyl-1H-imidazole-4-sulfonamide]	100 to 1000
Cc1nc(S(=O)(=O)Nc2cc3c(cc2Oc2cccc(OC(C)C)c2)n(C)c(=O)n3C)cn1C [Example 54, N-(6-(3-isopropoxyphenoxy)-1,3-dimethyl-2-oxo-2,3-dihydro-1H-benzo[d]imidazol-5-yl)-1,2-dimethyl-1H-imidazole-4-sulfonamide]	100 to 1000
Cn1cnc(S(=O)(=O)Nc2cc3c(cc2Oc2cccc(OCC4CCOCC4)c2)n(C)c(=O)n3C)c1 [Example 65, N-(1,3-dimethyl-2-oxo-6-(3-((tetrahydro-2H-pyran-4-yl)methoxy)phenoxy)-2,3-dihydro-1H-benzo[d]imidazol-5-yl)-1-methyl-1H-imidazole-4-sulfonamide]	100 to 1000
CC(C)COc1cc(Cl)cc(Oc2cc3c(cc2NS(=O)(=O)c2cn(C)cn2)n(C)c(=O)n3C)c1 [Example 223, N-(6-(3-chloro-5-isobutoxyphenoxy)-1,3-dimethyl-2-oxo-2,3-dihydro-1H-benzo[d]imidazol-5-yl)-1-methyl-1H-imidazole-4-sulfonamide]	10 to 100
Cn1c(=O)n(C)c2cc(Oc3cccc(OCc4ccccc4)c3)c(NS(=O)(=O)c3ccccc3)cc21 [Example 13, N-(6-(3-(benzyloxy)phenoxy)-1,3-dimethyl-2-oxo-2,3-dihydro-1H-benzo[d]imidazol-5-yl)benzenesulfonamide]	> 1000
CCCOc1cccc(Oc2cc3c(cc2NS(=O)(=O)c2c[nH]cn2)n(C)c(=O)n3C)c1 [Example 86, N-(1,3-dimethyl-2-oxo-6-(3-propoxyphenoxy)-2,3-dihydro-1H-benzo[d]imidazol-5-yl)-1H-imidazole-4-sulfonamide]	10 to 100
Cn1cnc(S(=O)(=O)Nc2cc3c(cc2Oc2cccc(OCc4ccc(Cl)nc4)c2)n(C)c(=O)n3C)c1 [Example 3, N-(6-(3-((6-chloropyridin-3-yl)methoxy)phenoxy)-1,3-dimethyl-2-oxo-2,3-dihydro-1H-benzo[d]imidazol-5-yl)-1-methyl-1H-imidazole-4-sulfonamide]	> 1000
Cn1cnc(S(=O)(=O)Nc2cc3c(cc2Oc2cccc(OCC(F)(F)F)c2)n(C)c(=O)n3C)c1 [Example 71, N-(1,3-dimethyl-2-oxo-6-(3-(2,2,2-trifluoroethoxy)phenoxy)-2,3-dihydro-1H-benzo[d]imidazol-5-yl)-1-methyl-1H-imidazole-4-sulfonamide]	10 to 100
Cn1cnc(S(=O)(=O)Nc2cc3c(cc2Oc2cccc(OCCCCN)c2)n(C)c(=O)n3C)c1 [Example 5, N-(6-(3-(4-aminobutoxy)phenoxy)-1,3-dimethyl-2-oxo-2,3-dihydro-1H-benzo[d]imidazol-5-yl)-1-methyl-1H-imidazole-4-sulfonamide]	100 to 1000
COCCCn1cnc(S(=O)(=O)Nc2cc3c(cc2Oc2cccc(OCC(F)(F)F)c2)n(C)c(=O)n3C)c1 [Example 96, N-(1,3-dimethyl-2-oxo-6-(3-(2,2,2-trifluoroethoxy)phenoxy)-2,3-dihydro-1H-benzo[d]imidazol-5-yl)-1-(3-methoxypropyl)-1H-imidazole-4-sulfonamide]	10 to 100

Other lines, results leading:

IC50 [nM]	SMILES
> 1000	CCCOc1cccc(Oc2cc3c(cc2NS(=O)(=O)c2cn(C)cn2)n(C)c(=O)n3C)c1C [Example 103, N-(1,3-dimethyl-6-(2-methyl-3-propoxyphenoxy)-2-oxo-2,3-dihydro-1H-benzo[d]imidazol-5-yl)-1-methyl-1H-imidazole-4-sulfonamide]
> 1000	Cn1cnc(S(=O)(=O)Nc2cc3c(cc2Oc2cccc(OCC(C)(O)CN)c2)n(C)c(=O)n3C)c1 (stereo not drawn) [Example 234, N-{6-[3-(3-amino-2-hydroxy-2-methylpropoxy)phenoxy]-1,3-dimethyl-2-oxo-2,3-dihydro-1H-1,3-benzodiazol-5-yl}-1-methyl-1H-imidazole-4-sulfonamide]
1 to 10	CCCOc1cc(OCCCCCCN(C)C)cc(Oc2cc3c(cc2NS(=O)(=O)c2cnn(C)c2C)n(C)c(=O)n3C)c1 [Example 219, N-(6-(3-((6-(dimethylamino)hexyl)oxy)-5-propoxyphenoxy)-1,3-dimethyl-2-oxo-2,3-dihydro-1H-benzo[d]imidazol-5-yl)-1,5-dimethyl-1H-pyrazole-4-sulfonamide]
10 to 100	COc1cc(S(=O)(=O)Nc2cc3c(cc2Oc2cccc(OCC4CC4)c2)n(C)c(=O)n3C)ccc1O [Example 241, N-(6-(3-(cyclopropylmethoxy)phenoxy)-1,3-dimethyl-2-oxo-2,3-dihydro-1H-benzo[d]imidazol-5-yl)-4-hydroxy-3-methoxybenzenesulfonamide]
10 to 100	COc1ccc(S(=O)(=O)Nc2cc3c(cc2Oc2cc(OCCCCCCN)cc(OCC(F)(F)F)c2)n(C)c(=O)n3C)cn1 [Example 203, N-(6-(3-((6-aminohexyl)oxy)-5-(2,2,2-trifluoroethoxy)phenoxy)-1,3-dimethyl-2-oxo-2,3-dihydro-1H-benzo[d]imidazol-5-yl)-6-methoxypyridine-3-sulfonamide]
1 to 10	COc1ccc(S(=O)(=O)Nc2cc3c(cc2Oc2cc(OCCCCCCN(C)C)cc(OCC(F)(F)F)c2)n(C)c(=O)n3C)cc1OC [Example 205, N-(6-(3-((6-(dimethylamino)hexyl)oxy)-5-(2,2,2-trifluoroethoxy)phenoxy)-1,3-dimethyl-2-oxo-2,3-dihydro-1H-benzo[d]imidazol-5-yl)-3,4-dimethoxybenzenesulfonamide]
100 to 1000	C=CCOc1cccc(S(=O)(=O)Nc2cc3c(cc2Oc2cccc(OCC(F)(F)F)c2)n(C)c(=O)n3C)c1 [Example 193, 3-(allyloxy)-N-(1,3-dimethyl-2-oxo-6-(3-(2,2,2-trifluoroethoxy)phenoxy)-2,3-dihydro-1H-benzo[d]imidazol-5-yl)benzenesulfonamide]
10 to 100	CCCOc1cc(OCCCCCCN)cc(Oc2cc3c(cc2NS(=O)(=O)c2cn(C)c(C)n2)n(C)c(=O)n3C)c1 [Example 182, N-(6-(3-((6-aminohexyl)oxy)-5-propoxyphenoxy)-1,3-dimethyl-2-oxo-2,3-dihydro-1H-benzo[d]imidazol-5-yl)-1,2-dimethyl-1H-imidazole-4-sulfonamide]
10 to 100	COCCCOc1cc(OCCCOC)cc(Oc2cc3c(cc2NS(=O)(=O)c2ccc(OC)c(OC)c2)n(C)c(=O)n3C)c1 [Example 122, N-(6-(3,5-bis(3-methoxypropoxy)phenoxy)-1,3-dimethyl-2-oxo-2,3-dihydro-1H-benzo[d]imidazol-5-yl)-3,4-dimethoxybenzenesulfonamide]
100 to 1000	CCCOc1cccc(Oc2cc3c(cc2NS(=O)(=O)c2cccc4c2OCCO4)n(C)c(=O)n3C)c1 [Example 172, N-(1,3-dimethyl-2-oxo-6-(3-propoxyphenoxy)-2,3-dihydro-1H-benzo[d]imidazol-5-yl)-2,3-dihydrobenzo[b][1,4]dioxine-5-sulfonamide]
100 to 1000	CCCOc1cc(OCCCOC)cc(Oc2cc3c(cc2NS(=O)(=O)c2ccc(OC(F)F)cc2)n(C)c(=O)n3C)c1 [Example 167, 4-(difluoromethoxy)-N-(6-(3-(3-methoxypropoxy)-5-propoxyphenoxy)-1,3-dimethyl-2-oxo-2,3-dihydro-1H-benzo[d]imidazol-5-yl)benzenesulfonamide]
1 to 10	Cn1c(=O)n(C)c2cc(Oc3cc(OCCCCCCN)cc(OCC(F)(F)F)c3)c(NS(=O)(=O)c3cccnc3)cc21 [Example 201, N-(6-(3-((6-aminohexyl)oxy)-5-(2,2,2-trifluoroethoxy)phenoxy)-1,3-dimethyl-2-oxo-2,3-dihydro-1H-benzo[d]imidazol-5-yl)pyridine-3-sulfonamide]
10 to 100	CCCOc1cc(OCCCCCCO)cc(Oc2cc3c(cc2NS(=O)(=O)c2cccnc2)n(C)c(=O)n3C)c1 [Example 180, N-(6-(3-((6-hydroxyhexyl)oxy)-5-propoxyphenoxy)-1,3-dimethyl-2-oxo-2,3-dihydro-1H-benzo[d]imidazol-5-yl)pyridine-3-sulfonamide]
10 to 100	CCCOc1cc(OCCCCCCN)cc(Oc2cc3c(cc2NS(=O)(=O)c2cccc(C#N)c2)n(C)c(=O)n3C)c1 [Example 190, N-(6-(3-((6-aminohexyl)oxy)-5-propoxyphenoxy)-1,3-dimethyl-2-oxo-2,3-dihydro-1H-benzo[d]imidazol-5-yl)-3-cyanobenzenesulfonamide]
100 to 1000	C=CCN(c1cc2c(cc1Oc1cccc(OCCC)c1)n(C)c(=O)n2C)S(=O)(=O)c1cn(CC=C)cn1 [Example 244, N,1-diallyl-N-(1,3-dimethyl-2-oxo-6-(3-propoxyphenoxy)-2,3-dihydro-1H-benzo[d]imidazol-5-yl)-1H-imidazole-4-sulfonamide]
